# Results: PMC11732441, “Biased constitutive signaling of the G protein-coupled receptor GPR35 suppresses gut barrier permeability [drawing 1]” (The Journal of Biological Chemistry, 2024)
# Columns and labels:
# hGPR35a [1] = target: T1, hGPR35a (Homo sapiens, UniProt Q9HC97); assay: BRET G protein re-association (inverse agonism) in HEK293 cells; effect in HEPG2 cells lost on GPR35 knock-out; type: cell-based
# T1 construct: gene GPR35; FLAG-hGPR35a (N-terminal FLAG tag); with Gα13/Gβ3/Gγ9
# hGPR35a [2] = target: T1, hGPR35a; assay: BRET G protein dissociation (TRUPATH-like) in Flp-In T-REx […] cells expressing FLAG-hGPR35a; type: cell-based
# T1 sequence (Q9HC97 whole entry): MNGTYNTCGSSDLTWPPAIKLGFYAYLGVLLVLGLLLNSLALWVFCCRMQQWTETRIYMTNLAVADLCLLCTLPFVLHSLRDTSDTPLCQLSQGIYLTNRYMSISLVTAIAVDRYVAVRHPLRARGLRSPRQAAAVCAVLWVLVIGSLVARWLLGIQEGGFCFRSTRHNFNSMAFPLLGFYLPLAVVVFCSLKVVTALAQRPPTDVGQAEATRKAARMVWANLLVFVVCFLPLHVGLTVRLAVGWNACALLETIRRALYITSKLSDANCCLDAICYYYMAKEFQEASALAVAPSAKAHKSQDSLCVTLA
# T1 sequence (Q14344 whole entry partner): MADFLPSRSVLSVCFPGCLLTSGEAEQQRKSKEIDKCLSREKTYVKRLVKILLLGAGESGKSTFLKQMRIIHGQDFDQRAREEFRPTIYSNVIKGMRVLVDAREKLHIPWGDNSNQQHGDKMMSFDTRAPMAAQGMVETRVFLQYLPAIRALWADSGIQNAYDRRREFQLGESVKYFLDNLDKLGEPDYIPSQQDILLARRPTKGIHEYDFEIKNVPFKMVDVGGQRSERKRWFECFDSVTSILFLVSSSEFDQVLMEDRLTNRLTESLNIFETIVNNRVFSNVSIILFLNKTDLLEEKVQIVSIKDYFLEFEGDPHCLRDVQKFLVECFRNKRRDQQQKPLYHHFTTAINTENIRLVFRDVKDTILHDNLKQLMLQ
# T1 sequence (P16520 whole entry partner): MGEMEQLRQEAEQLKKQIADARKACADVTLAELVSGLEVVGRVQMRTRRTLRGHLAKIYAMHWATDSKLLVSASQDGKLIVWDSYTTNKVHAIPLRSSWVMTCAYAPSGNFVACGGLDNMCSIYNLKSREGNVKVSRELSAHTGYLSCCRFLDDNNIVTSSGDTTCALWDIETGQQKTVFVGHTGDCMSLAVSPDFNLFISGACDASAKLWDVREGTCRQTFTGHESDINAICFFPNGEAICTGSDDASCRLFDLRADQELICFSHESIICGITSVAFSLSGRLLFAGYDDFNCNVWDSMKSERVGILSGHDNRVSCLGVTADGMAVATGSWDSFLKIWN
# T1 sequence (O14610 1-66 partner): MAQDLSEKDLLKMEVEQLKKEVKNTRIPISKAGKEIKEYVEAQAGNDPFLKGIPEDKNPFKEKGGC
SMILES,BRET G protein re-association (inverse agonism) in HEK293 cells; effect in HEPG2 (hGPR35a [1]),EC50 (hGPR35a [2]) [nM]
COC(=O)c1cnn(-c2ccc(F)cc2F)c1C=NNC(=S)NC(C)(C)C [CID-2745687],the BRET signal induced by CID-2745687 increased with receptor plasmid amount,
N#Cc1cc(NC(=O)C(=O)O)c(Cl)c(NC(=O)C(=O)O)c1 [lodoxamide],,1.48
